Assay results: ChEMBL document CHEMBL3045514, “An efficient one-pot cyclization of quinoline thiosemicarbazones to quinolines derivatized with 1,3,4-thiadiazole as anticancer and anti-tubercular agents” (Med Chem Res, 2012)
Values after ≈ are worked out from the molar mass of the structure shown. Active and inactive are the calls of the source. No cut-off for these calls is given here.

Legend:
Mus musculus = organism: Mus musculus; assay: Toxicity in Mus musculus (mouse) assessed as irritation; type: organism-based; conditions: in vivo
[1] = system: Mycobacterium tuberculosis; assay: Antitubercular activity against Mycobacterium tuberculosis H37Rv at 10 ug/ml measured twice a week for 3 weeks by Ziehl-Neelsen staining; type: functional, organism-based
[2] = system: Mycobacterium tuberculosis; assay: Antitubercular activity against Mycobacterium tuberculosis H37Rv at 25 ug/ml measured twice a week for 3 weeks by Ziehl-Neelsen staining; type: functional, organism-based
[3] = system: Mycobacterium tuberculosis; assay: Antitubercular activity against Mycobacterium tuberculosis H37Rv at 5 ug/ml measured twice a week for 3 weeks by Ziehl-Neelsen staining; type: functional, organism-based
HeLa = assay: Cytotoxicity against Homo sapiens (human) HeLa cells assessed as cell mortality after 24 to 72 hr by inverted microscopic analysis; type: functional
[4] = system: Mycobacterium tuberculosis; assay: Antitubercular activity against Mycobacterium tuberculosis H37Rv measured twice a week for 3 weeks by Ziehl-Neelsen staining; type: functional; conditions: 504 h

Compound | Activity (Mus musculus) | Activity [1] | Activity [2] | Activity [3] | Activity (HeLa) [µg/mL] | MIC [4] [µg/mL]
CC(=O)NC1=NN(C(C)=O)C(c2cc3ccc(C)cc3nc2Cl)S1 (stereo not drawn) | Non-toxic | Active | Active | inactive | 20 | –
COc1cc2cc(C3SC(NC(C)=O)=NN3C(C)=O)c(Cl)nc2cc1OC (stereo not drawn) | Non-toxic | Active | Active | inactive | 10 | –
CC(=O)NC1=NN(C(C)=O)C(c2cc3cccc(C)c3nc2Cl)S1 (stereo not drawn) | Non-toxic | Active | Active | inactive | 25 | 5 (≈ 13.8 µM)
COc1cccc2cc(C3SC(NC(C)=O)=NN3C(C)=O)c(Cl)nc12 (stereo not drawn) | Non-toxic | Active | Active | inactive | 15 | 5 (≈ 13.2 µM)
CC(=O)NC1=NN(C(C)=O)C(c2cc3cc(C)ccc3nc2Cl)S1 (stereo not drawn) | Non-toxic | Active | Active | inactive | 10 | –
CN[C@@H]1[C@H](O[C@H]2[C@H](O[C@H]3[C@H](O)[C@@H](O)[C@H](N=C(N)N)[C@@H](O)[C@@H]3N=C(N)N)O[C@@H](C)[C@]2(O)C=O)O[C@@H](CO)[C@H](O)[C@H]1O [STREPTOMYCIN] | – | – | – | – | – | 10 (≈ 17.2 µM)
CC(=O)NC1=NN(C(C)=O)C(c2cc3ccccc3nc2Cl)S1 (stereo not drawn) | Non-toxic | Active | Active | inactive | 15 | –
CC(=O)NC1=NN(C(C)=O)C(c2cc3ccc(Cl)cc3nc2Cl)S1 (stereo not drawn) | Non-toxic | Active | Active | inactive | 20 | –
CC(=O)NC1=NN(C(C)=O)C(c2cc3cc(Br)ccc3nc2Cl)S1 (stereo not drawn) | Non-toxic | Active | Active | inactive | 20 | –
COc1ccc2nc(Cl)c(C3SC(NC(C)=O)=NN3C(C)=O)cc2c1 (stereo not drawn) | Non-toxic | Active | Active | inactive | 10 | –
COc1ccc2cc(C3SC(NC(C)=O)=NN3C(C)=O)c(Cl)nc2c1 (stereo not drawn) | Non-toxic | Active | Active | inactive | 15 | –
